Data as given in patent US20240301319A1, “PERFUMING COMPOSITIONS” (FIRMNICH SA, priority 2017, published 2024).
Counter-ions that a name gives are not always drawn. Like-named read-outs stand apart in the source and are kept apart here.

Experiments:
[1] = Odor threshold and odor value of perfuming compounds (Tables 4 to 10)
[2] = Volatility of perfuming compounds (Tables 4 to 10), with top/middle/bottom note type; assay type: physicochemical
Method in brief: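 Note type follows from air volatility (μg/l): bottom 49–0.1, middle 99–50, top 70,000–100. Compounds are listed within watery, green, fruity, citrus, sweet, gourmand and woody families.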

[3] = Table 8, perfuming compounds having a sweet note
[4] = Table 8, perfuming compounds having a sweet note, note type by volatility
[5] = Table 9, perfuming compounds having a gourmand note, note type by volatility
[6] = perfuming compounds having a green note
[7] = Table 6, perfuming compounds having a fruity note
[8] = Table 6, perfuming compounds having a fruity note, note type by volatility
[9] = note type (Top/Middle/Bottom) by volatility, perfuming compounds having a green note
[10] = Table 7, citrus note, equals volatility divided by odor threshold
[11] = Table 7, citrus note, top, middle or bottom note
[12] = Table 10, perfuming compounds having a woody note, note type by volatility
[13] = Table 4, watery note, equals volatility divided by odor threshold
[14] = Table 4, watery note, top, middle or bottom note

## C/C=C/c1ccc(O)c(OC)c1 [2-methoxy-4-[(1E)-1-propen-1-yl]phenol]
[1]; [3]
  Odor Threshold: 6.63E−06 μg/l air
  Odor Value: 1.70E+06
[1]; Table 9, gourmand note
  Odor Threshold: 6.63E−06 μg/l air
[2]; [3]
  Volatility: 11.28 μg/l air
[2]; [4]
  Type: Bottom
[2]; Table 9, gourmand note
  Volatility: 11.28 μg/l air
[2]; [5]
  Type: Bottom

## CC/C=C\CCOC(=O)CCC [(3Z)-3-hexen-1-yl butyrate]
[1]; [6]
  Odor Threshold (μg/l air): 7.85E−02 μg/l air
[2]; [7]
  Volatility: 1674.15 μg/l air
[2]; [8]
  Type: TOP (perfuming compounds having a volatility ranging from 70,000 to 100 μg/l in air are referred to as “top notes”)
[2]; [9]
  Type: Top
[2]; [6]
  Volatility (μg/l air): 1674.15 μg/l air

## CC1=CCC(C(C)C)=CC1 [1-methyl-4-(2-propanyl)-1,4-cyclohexadiene]
[1]; Table 7, citrus note
  Odor Threshold (μg/l air): 1.16E−01 μg/l air
[1]; [10]
  Odor Value: 3.70E+04
[2]; Table 7, citrus note
  Volatility (μg/l air): 4298.67 μg/l air
[2]; [11]
  Type: Top

## CCOC(=O)C1OC1(C)c1ccccc1 (stereo not shown) [ETHYL 2,3-EPDXY-3-PHENYLBUTANOATE]
[1]; [7]
  Odor Threshold: 2.28E−05 μg/l air
  Odor Value: 5.68E+05
[2]; [7]
  Volatility: 12.97 μg/l air
[2]; [8]
  Type: Bottom

## Cc1occc(=O)c1O [3-HYDROXY-2-METHYL-4(4H)-PYRANONE]
[1]; [7]
  Odor Threshold: 4.17E−04 μg/l air
  Odor Value: 2.22E+05
[1]; [3]
  Odor Threshold: 4.17E−04 μg/l air
  Odor Value: 2.22E+05
[2]; [7]
  Volatility: 92.42 μg/l air
[2]; [8]
  Type: Middle
[2]; [3]
  Volatility: 92.42 μg/l air
[2]; [4]
  Type: Middle

## CC(OC=O)C1CCCC(C)(C)C1 (stereo not shown) [1-(3,3-DIMETHYL-1-CYCLOHEXYL)ETHYL FORMATE]
[1]; Table 7, citrus note
  Odor Threshold (μg/l air): 2.05E−01 μg/l air
[1]; [10]
  Odor Value: 5.50E+03
[2]; Table 7, citrus note
  Volatility (μg/l air): 1129.46 μg/l air
[2]; [11]
  Type: Top

## O=C/C=C/c1ccccc1 [(E)-3-PHENYL-2-PROPENAL]
[1]; Table 10, woody note
  Odor Threshold: 1.36E−03 μg/l air
[2]; [12]
  Type: Middle
[2]; Table 10, woody note
  Volatility: 70.14 μg/l air

## CITRONELLOL (A) + GERANIOL (B)
[1]; Table 7, citrus note
  Odor Threshold (μg/l air): 7.69E−04 μg/l air
[2]; Table 7, citrus note
  Volatility (μg/l air): 89.88 μg/l air
[2]; [11]
  Type: Middle

## CCCC1CCCC(=O)O1 (racemic) [(+−)-6-propyltetrahydro-2H-pyran-2-one]
[1]; [7]
  Odor Threshold: 2.17E−04 μg/l air
  Odor Value: 2.65E+05
[1]; Table 7, citrus note
  Odor Threshold (μg/l air): 2.17E−04 μg/l air
[1]; [10]
  Odor Value: 2.65E+05
[2]; [7]
  Volatility: 57.43 μg/l air
[2]; [8]
  Type: Middle
[2]; Table 7, citrus note
  Volatility (μg/l air): 57.43 μg/l air
[2]; [11]
  Type: Middle

## CCCCCCOC(=O)c1ccccc1O [HEXYL 2-HYDROXYBENZOATE]
[1]; [7]
  Odor Threshold: 5.50E−03 μg/l air
  Odor Value: 6.95E+02
[1]; Table 7, citrus note
  Odor Threshold (μg/l air): 5.50E−03 μg/l air
[1]; [10]
  Odor Value: 6.95E+02
[1]; [6]
  Odor Threshold (μg/l air): 5.50E−03 μg/l air
[2]; [7]
  Volatility: 3.82 μg/l air
[2]; [8]
  Type: Bottom
[2]; Table 7, citrus note
  Volatility (μg/l air): 3.82 μg/l air
[2]; [11]
  Type: Bottom
[2]; [9]
  Type: Bottom
[2]; [6]
  Volatility (μg/l air): 3.82 μg/l air

## CC1CCC2C(C)(C)C3CC12CCC3(C)O (racemic)
[1]; Table 10, woody note
  Odor Threshold: 3.38E−02 μg/l air
[2]; [12]
  Type: Bottom
[2]; Table 10, woody note
  Volatility: 11.83 μg/l air

## CCC(C)C(=O)OC(C)C (racemic) [(+−)-ISOPROPYL 2-METHYLBUTANOATE]
[1]; Table 7, citrus note
  Odor Threshold (μg/l air): 8.42E−03 μg/l air
[1]; [10]
  Odor Value: 6.10E+06
[2]; [7]
  Volatility: 51367.63 μg/l air
[2]; [8]
  Type: TOP (perfuming compounds having a volatility ranging from 70,000 to 100 μg/l in air are referred to as “top notes”)
[2]; Table 7, citrus note
  Volatility (μg/l air): 51367.63 μg/l air
[2]; [11]
  Type: Top

## CC(=O)OC(CC(C)C)CC(C)C [1-ISOBUTYL-3-METHYLBUTYL ACETATE]
[1]; [6]
  Odor Threshold (μg/l air): 1.62E+00 μg/l air
[2]; [7]
  Volatility: 5265.61 μg/l air
[2]; [8]
  Type: TOP (perfuming compounds having a volatility ranging from 70,000 to 100 μg/l in air are referred to as “top notes”)
[2]; [9]
  Type: Top
[2]; [6]
  Volatility (μg/l air): 5265.61 μg/l air

## CCCCC/C(C=O)=C\c1ccccc1 [(E)-2-PENTYL-3-PHENYL-2-PROPENAL]
[1]; [7]
  Odor Threshold: 3.64E−04 μg/l air
  Odor Value: 1.87E+03
[1]; Table 7, citrus note
  Odor Threshold (μg/l air): 3.64E−04 μg/l air
[1]; [10]
  Odor Value: 1.87E+03
[2]; [7]
  Volatility: 0.68 μg/l air
[2]; [8]
  Type: Bottom
[2]; Table 7, citrus note
  Volatility (μg/l air): 0.68 μg/l air
[2]; [11]
  Type: Bottom

## C=C/C=C/C=C\CCCCC
[1]; [6]
  Odor Threshold (μg/l air): 3.76E−05 μg/l air
[2]; [9]
  Type: Top
[2]; [6]
  Volatility (μg/l air): 1247.28 μg/l air

## (+−)-3-(4-hydroxy-4-methylpentyl)-3-cyclohexene-1-carbaldehyde (A) + (+−)-4-(4-hydroxy-4-methylpentyl)-3-cyclohexene-1-carbaldehyde (B)
[1]; Table 4, watery note
  Odor Threshold (μg/l air): 8.81E−05 μg/l air
[1]; [13]
  Odor Value: 7.92E+03
[2]; Table 4, watery note
  Volatility (μg/l air): 0.70 μg/l air
[2]; [14]
  Type: bottom (perfuming compounds having a volatility ranging from 49 to 0.1 μg/l in air are referred to as “bottom notes”)

## CC1=CCC2C(C1)C1CC2C2(C1)OC2C (racemic)
[1]; [7]
  Odor Threshold: 9.93E−04 μg/l air
  Odor Value: 3.70E+04
[1]; [6]
  Odor Threshold (μg/l air): 9.93E−04 μg/l air
[2]; [7]
  Volatility: 36.76 μg/l air
[2]; [8]
  Type: Bottom
[2]; [9]
  Type: Bottom
[2]; [6]
  Volatility (μg/l air): 36.76 μg/l air

## CCCCOC(C)=O [BUTYL ACETATE]
[1]; [3]
  Odor Threshold: 4.18E−01 μg/l air
  Odor Value: 2.80E+05
[1]; Table 9, gourmand note
  Odor Threshold: 4.18E−01 μg/l air
[2]
  Volatility: 117207.52 μg/l air
[2]; [8]
  Type: TOP (perfuming compounds having a volatility ranging from 70,000 to 100 μg/l in air are referred to as “top notes”)
[2]; [4]
  Type: Top
[2]; [5]
  Type: Top

## COC(C)(C)CCCC(C)C(C)O (racemic)
[1]; Table 10, woody note
  Odor Threshold: 2.66E−02 μg/l air
[2]; [12]
  Type: Bottom
[2]; Table 10, woody note
  Volatility: 35.54 μg/l air

## CC1(C)CCC[C@@]2(C)[C@H]1CC[C@@]1(C)OCC[C@@H]21
[1]; Table 10, woody note
  Odor Threshold: 2.16E−03 μg/l air
[2]; [12]
  Type: Bottom
[2]; Table 10, woody note
  Volatility: 9.23 μg/l air

## CC(C)(C)c1ccc2c(c1)OCC(=O)CO2 [7-(2-methyl-2-propanyl)-2H-1,5-benzodioxepin-3(4H)-one]
[1]; Table 4, watery note
  Odor Threshold (μg/l air): 1.53E−04 μg/l air
[1]; [13]
  Odor Value: 2.85E+04
[1]; [6]
  Odor Threshold (μg/l air): 1.53E−04 μg/l air
[2]; Table 4, watery note
  Volatility (μg/l air): 4.37 μg/l air
[2]; [14]
  Type: bottom (perfuming compounds having a volatility ranging from 49 to 0.1 μg/l in air are referred to as “bottom notes”)
[2]; [9]
  Type: Bottom
[2]; [6]
  Volatility (μg/l air): 4.37 μg/l air

## CC/C=C\CC/C=C/CO [(2E,6Z)-2,6-NONADIEN-1-OL]
[1]; Table 4, watery note
  Odor Threshold (μg/l air): 3.22E−06 μg/l air
[1]; [13]
  Odor Value: 3.07E+07
[1]; [6]
  Odor Threshold (μg/l air): 3.22E−06 μg/l air
[2]; Table 4, watery note
  Volatility (μg/l air): 98.76 μg/l air
[2]; [14]
  Type: middle (perfuming compounds having a volatility ranging from 99 to 50 μg/l in air are referred to as “middle notes”)
[2]; [9]
  Type: Middle
[2]; [6]
  Volatility (μg/l air): 98.76 μg/l air

## CCCC(S)CCOC(C)=O (racemic) [(+−)-3-mercaptohexyl acetate]
[1]; [6]
  Odor Threshold (μg/l air): 2.72E−06 μg/l air
[2]; [7]
  Volatility: 421.09 μg/l air
[2]; [8]
  Type: TOP (perfuming compounds having a volatility ranging from 70,000 to 100 μg/l in air are referred to as “top notes”)
[2]; [9]
  Type: Top
[2]; [6]
  Volatility (μg/l air): 421.09 μg/l air

## CCCCC/C=C/CCC=O [(E)-4-DECENAL]
[1]; Table 7, citrus note
  Odor Threshold (μg/l air): 7.59E−05 μg/l air
[1]; [10]
  Odor Value: 9.11E+06
[2]; Table 7, citrus note
  Volatility (μg/l air): 691.34 μg/l air
[2]; [11]
  Type: Top

## CCOC(C)OC1CCCCCCCCCCC1 (racemic) [(+−)-(1-ethoxyethoxy)cyclododecane]
[1]; Table 10, woody note
  Odor Threshold: 2.51E−02 μg/l air
[2]; [12]
  Type: Bottom
[2]; Table 10, woody note
  Volatility: 5.04 μg/l air

## CCCCCC(=O)O [HEXANOIC ACID]
[1]; [3]
  Odor Threshold: 1.82E−02 μg/l air
  Odor Value: 1.09E+04
[1]; Table 9, gourmand note
  Odor Threshold: 1.82E−02 μg/l air
[1]; [6]
  Odor Threshold (μg/l air): 1.82E−02 μg/l air
[2]; [3]
  Volatility: 197.90 μg/l air
[2]; [4]
  Type: Top
[2]; Table 9, gourmand note
  Volatility: 197.90 μg/l air
[2]; [5]
  Type: Top
[2]; [9]
  Type: Top
[2]; [6]
  Volatility (μg/l air): 197.90 μg/l air

## CC(C)=CCCC(C)CCCC(C)C=O (racemic)
[1]; Table 4, watery note
  Odor Threshold (μg/l air): 1.59E−02 μg/l air
[1]; [13]
  Odor Value: 1.15E+03
[2]; Table 4, watery note
  Volatility (μg/l air): 18.23 μg/l air
[2]; [14]
  Type: bottom (perfuming compounds having a volatility ranging from 49 to 0.1 μg/l in air are referred to as “bottom notes”)

## CCC/C=C/COC(C)=O [(E)-2-HEXENYL ACETATE]
[1]; [6]
  Odor Threshold (μg/l air): 2.08E−01 μg/l air
[2]; [7]
  Volatility: 6062.68 μg/l air
[2]; [8]
  Type: TOP (perfuming compounds having a volatility ranging from 70,000 to 100 μg/l in air are referred to as “top notes”)
[2]; [9]
  Type: Top
[2]; [6]
  Volatility (μg/l air): 6062.68 μg/l air

## OCCc1ccccc1 [2-PHENYLETHANOL]
[1]; [3]
  Odor Threshold: 1.02E−04 μg/l air
  Odor Value: 1.56E+06
[1]; Table 9, gourmand note
  Odor Threshold: 1.02E−04 μg/l air
[2]; [7]
  Volatility: 159.75 μg/l air
[2]; [8]
  Type: TOP (perfuming compounds having a volatility ranging from 70,000 to 100 μg/l in air are referred to as “top notes”)
[2]; [3]
  Volatility: 159.75 μg/l air
[2]; [4]
  Type: Top
[2]; Table 9, gourmand note
  Volatility: 159.75 μg/l air
[2]; [5]
  Type: Top
